{"source": "patent US6737511B1", "about": "(priority 1999, dated 2004)", "key": {"[1]": {"test_system": "HeLa cells", "type": "cell-based, human", "settings": "chloroquine 10 μM"}, "[2]": {"test_system": "J774 cells", "type": "cell-based"}, "[3]": {"test_system": "Cos-7 cells", "type": "cell-based, monkey"}}}
{"compound": "CCN(CC)CCCC(C)Nc1ccnc2cc(Cl)ccc12", "note": "(stereo not shown) [Chloroquine]", "values": [{"measurement": "effect on Bcl-xL-DTR inhibition of poliovirus-induced cell death", "setting": "[1]", "value": "did not block the activity of Bcl-xL-DTR to inhibit poliovirus-induced cell death"}]}
{"compound": "CN[C@@H]1C[C@H]2O[C@@](C)([C@@H]1OC)n1c3ccccc3c3c4c(c5c6ccccc6n2c5c31)C(=O)NC4", "note": "[STS, staurosporine]", "values": [{"measurement": "apoptosis induced in J774 cells", "setting": "[2]", "value": "died by apoptosis over the following 36 hours"}, {"measurement": "Cell death (%)", "setting": "[3]", "value": 24, "unit": "%"}]}
{"compound": "brefeldin A", "values": [{"measurement": "effect on anti-apoptosis activity of Bcl-xL-DTR", "setting": "[3]", "value": "does block the anti-apoptosis activity of Bcl-xL-DTR"}]}
